Assay results: patent US20110105509A1 (Wyeth, LLC, priority 2009, published 2011)

Target: T1, CRTH2 (Homo sapiens, UniProt Q9Y5Y4)
T1 construct: expressed in transfected cells; host or cells: CHO cells
T1 sequence (Q9Y5Y4 1-395): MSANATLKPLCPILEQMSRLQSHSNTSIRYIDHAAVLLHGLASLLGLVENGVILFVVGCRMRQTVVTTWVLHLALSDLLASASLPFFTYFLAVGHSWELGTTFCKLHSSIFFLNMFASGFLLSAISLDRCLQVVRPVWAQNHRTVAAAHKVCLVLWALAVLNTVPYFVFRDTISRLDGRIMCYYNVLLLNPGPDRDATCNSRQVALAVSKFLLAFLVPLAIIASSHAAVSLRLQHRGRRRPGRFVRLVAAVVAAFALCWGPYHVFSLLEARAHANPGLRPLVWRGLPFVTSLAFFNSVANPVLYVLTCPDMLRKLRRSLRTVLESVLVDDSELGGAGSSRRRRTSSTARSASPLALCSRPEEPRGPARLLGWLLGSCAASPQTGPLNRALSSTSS
Test: FRET based competitive immunoassay (cAMP) in CRTH2 expressing CHO cells
Format: cell-based
Conditions: CRTH2 expressing CHO cells incubated with forskolin and PGD2; Eu3+ cryptate-labeled anti-cAMP and d2-labeled cAMP
Experimental: FRET Assay: To evaluate potency compounds were tested in a FRET based competitive immunoassay in which CRTH2 expressing CHO cells were incubated in the presence of forskolin and PGD2 along with Eu3+ cryptate-labeled anti-cAMP and d2-labeled cAMP.

Cc1c(-c2ccc(=O)n(Cc3cccc(C(F)(F)F)c3)n2)c2cc(Cl)ccc2n1CC(=O)O [Example 212, 2-(5-chloro-2-methyl-3-(6-oxo-1-(3-(trifluoromethyl)benzyl)-1,6-dihydropyridazin-3-yl)-1H-indol-1-yl)acetic acid]
IC50: 33 nM

Cc1c(-c2ccc(=O)n(Cc3cccc(F)c3F)c2)c2cc(Cl)ccc2n1CC(=O)O [Example 292, 2-(5-Chloro-3-(1-(2,3-difluorobenzyl)-6-oxo-1,6-dihydropyridin-3-yl)-2-methyl-1H-indol-1-yl)acetic acid]
IC50: 11 nM

Cc1c(-c2nn(-c3ccccc3)c(=O)c3ccccc23)c2cc(F)ccc2n1CC(=O)O [Example 205, 2-(5-fluoro-2-methyl-3-(4-oxo-3-phenyl-3,4-dihydrophthalazin-1-yl)-1H-indol-1-yl)-acetic acid]
IC50: 60 nM

Cc1c(-c2ccc(=O)n(Cc3cccc(F)c3F)c2)c2cc(F)ccc2n1CCO [Example 305, 1-(2,3-difluorobenzyl)-5-(5-fluoro-1-(2-hydroxyethyl)-2-methyl-1H-indol-3-yl)-pyridin-2(1H)-one]
IC50: > 2000 nM

Cc1c(-c2nn(Cc3ccc(C(F)(F)F)cc3)c(=O)c3ccccc23)c2cc(F)ccc2n1CC(=O)O [Example 204, 2-(5-fluoro-2-methyl-3-(4-oxo-3-(4-(trifluoromethyl)benzyl)-3,4-dihydrophthalazin-1-yl)-1H-indol-1-yl)acetic acid]
IC50: 10 nM

Cc1c(-c2nn(Cc3ccccc3C(F)(F)F)c(=O)c3ccccc23)c2cc(F)ccc2n1CC(=O)O [Example 202, 2-(5-fluoro-2-methyl-3-(4-oxo-3-(2-(trifluoromethyl)benzyl)-3,4-dihydrophthalazin-1-yl)-1H-indol-1-yl)acetic acid]
IC50: 9 nM

Cc1c(-c2ccc(=O)n(Cc3ccc(F)cc3)c2)c2cc(Cl)ccc2n1CC(=O)O [Example 289, 2-(5-chloro-3-(1-(4-fluorobenzyl)-6-oxo-1,6-dihydropyridin-3-yl)-2-methyl-1H-indol-1-yl)acetic acid]
IC50: 6 nM

Cc1cc(Cn2nc(-c3c(C)n(CC(=O)O)c4ccc(Cl)cc34)ccc2=O)c2ccccc2n1 [Example 145, 2-(5-chloro-2-methyl-3-(1-((2-methylquinolin-4-yl)methyl)-6-oxo-1,6-dihydropyridazin-3-yl)-1H-indol-1-yl)acetic acid]
IC50: 144 nM

Cc1c(-c2ccc(=O)n(CCCC(F)(F)F)c2)c2ccccc2n1CC(=O)O [Example 296, 2-(2-methyl-3-(6-oxo-1-(4,4,4-trifluorobutyl)-1,6-dihydropyridin-3-yl)-1H-indol-1-yl)acetic acid]
IC50: 397 nM

Cc1c(-c2ccc(=O)n(Cc3cc(F)c(F)cc3F)c2)c2ccccc2n1CC(=O)O [Example 286, 2-(2-methyl-3-(6-oxo-1-(2,4,5-trifluorobenzyl)-1,6-dihydropyridin-3-yl)-1H-indol-1-yl)acetic acid]
IC50: 11 nM

Cc1c(-c2cn(CC(C)(C)C)c(=O)c3ccccc23)c2cc(F)ccc2n1CC(=O)O [Example 257, 2-(5-fluoro-2-methyl-3-(2-neopentyl-1-oxo-1,2-dihydroisoquinolin-4-yl)-1H-indol-1-yl)acetic acid]
IC50: 3 nM

Cc1c(-c2ccc(=O)n(Cc3ccccc3)c2)c2cc(F)ccc2n1CC(=O)NS(=O)(=O)c1ccccc1 [Example 312, 2-(3-(1-benzyl-6-oxo-1,6-dihydropyridin-3-yl)-5-fluoro-2-methyl-1H-indol-1-yl)-N-(phenylsulfonyl)acetamide]
IC50: > 1000 nM

Cc1c(-c2ccc(=O)n(Cc3ccc(F)cc3F)c2)c2ccccc2n1CC(=O)O [Example 275, 2-(3-(1-(2,4-difluorobenzyl)-6-oxo-1,6-dihydropyridin-3-yl)-2-methyl-1H-indol-1-yl)acetic acid]
IC50: 30 nM

Cc1c(-c2ccc(=O)n(CC(C)C)n2)c2cc(F)ccc2n1CC(=O)O [Example 333, 2-(5-fluoro-3-(1-isobutyl-6-oxo-1,6-dihydropyridazin-3-yl)-2-methyl-1H-indol-1-yl)acetic acid]
IC50: 111 nM

Cc1c(-c2nn(Cc3ccc(OC(F)(F)F)cc3)c(=O)c3ccccc23)c2cc(Cl)ccc2n1CC(=O)O [Example 102, 2-(5-chloro-2-methyl-3-(4-oxo-3-(4-(trifluoromethoxy)benzyl)-3,4-dihydrophthalazin-1-yl)-1H-indol-1-yl)acetic acid]
IC50: 27 nM

Cc1c(-c2nn(CC3CC3)c(=O)c3ccccc23)c2cc(F)ccc2n1CC(=O)O [Example 122, 2-(3-(3-(cyclopropylmethyl)-4-oxo-3,4-dihydrophthalazin-1-yl)-5-fluoro-2-methyl-1H-indol-1-yl)acetic acid]
IC50: 27 nM

CCn1nc(-c2c(C)n(CC(=O)O)c3ccc(Cl)cc23)c2ccccc2c1=O [Example 106, 2-(5-Chloro-3-(3-ethyl-4-oxo-3,4-dihydrophthalazin-1-yl)-2-methyl-1H-indol-1-yl)acetic acid]
IC50: 23 nM

Cc1c(-c2ccc(=O)n(Cc3ccc(F)cc3F)c2)c2cc(Cl)ccc2n1CC(=O)O [Example 274, 2-(5-chloro-3-(1-(2,4-difluorobenzyl)-6-oxo-1,6-dihydropyridin-3-yl)-2-methyl-1H-indol-1-yl)acetic acid]
IC50: 3 nM

Cc1c(-c2ccc(=O)n(Cc3ccc(C(C)C)cc3)n2)c2cc(Cl)ccc2n1CC(=O)O [Example 147, 2-(5-chloro-3-(1-(4-isopropylbenzyl)-6-oxo-1,6-dihydropyridazin-3-yl)-2-methyl-1H-indol-1-yl)acetic acid]
IC50: 334 nM

Cc1c(-c2nn(CC(F)(F)F)c(=O)c3ccccc23)c2ccccc2n1CC(=O)O [Example 177, 2-(2-Methyl-3-(4-oxo-3-(2,2,2-trifluoroethyl)-3,4-dihydrophthalazin-1-yl)-1H-indol-1-yl)-acetic acid]
IC50: 215 nM

Cc1c(-c2nn(CC(C)(C)Oc3ccccc3)c(=O)c3ccccc23)c2cc(F)ccc2n1CC(=O)O [Example 220, 2-(5-fluoro-2-methyl-3-(3-(2-methyl-2-phenoxypropyl)-4-oxo-3,4-dihydrophthalazin-1-yl)-1H-indol-1-yl)acetic acid]
IC50: 18 nM

Cc1c(Cc2ccc(=O)n(CCCC(F)(F)F)c2)c2cc(F)ccc2n1CC(=O)O [Example 54, 2-(5-Fluoro-2-methyl-3-((6-oxo-1-(4,4,4-trifluorobutyl)-1,6-dihydropyridin-3-yl)methyl)-1H-indol-1-yl)acetic acid]
IC50: 329 nM

Cc1c(Cc2ccc(=O)n(Cc3c(F)cccc3F)c2)c2cc(F)ccc2n1CC(=O)O [Example 38, 2-(3-((1-(2,6-Difluorobenzyl)-6-oxo-1,6-dihydropyridin-3-yl)methyl)-5-fluoro-2-methyl-1H-indol-1-yl)acetic acid]
IC50: 7 nM

Cc1c(-c2nn(C(C)C)c(=O)c3ccccc23)c2cc(F)ccc2n1CC(=O)O [Example 330, {5-fluoro-2-methyl-3-[3-(1-methylethyl)-4-oxo-3,4-dihydrophthalazin-1-yl]-1H-indol-1-yl}acetic acid]
IC50: 15 nM

Cc1c(-c2nn(C3CC3)c(=O)c3ccccc23)c2cc(F)ccc2n1CC(=O)O [Example 123, 2-(3-(3-cyclopropyl-4-oxo-3,4-dihydrophthalazin-1-yl)-5-fluoro-2-methyl-1H-indol-1-yl)acetic acid]
IC50: 22 nM

COc1ccc2c(c1)c(-c1nn(C(C)C)c(=O)c3ccccc13)c(C)n2CC(=O)O [Example 19, 2-(3-(3-Isopropyl-4-oxo-3,4-dihydrophthalazin-1-yl)-5-methoxy-2-methyl-1H-indol-1-yl)acetic acid]
IC50: 109 nM

Cc1c(-c2ccc(=O)n(Cc3ccccc3F)n2)c2ccccc2n1CC(=O)O [Example 190, 2-(3-(1-(2-fluorobenzyl)-6-oxo-1,6-dihydropyridazin-3-yl)-2-methyl-1H-indol-1-yl)acetic acid]
IC50: 867 nM

Cc1nnc(Cn2nc(-c3c(C)n(CC(=O)O)c4ccc(Cl)cc34)c3ccccc3c2=O)[nH]1 [Example 259b, 2-(5-chloro-2-methyl-3-(3-((5-methyl-4H-1,2,4-triazol-3-yl)methyl)-4-oxo-3,4-dihydrophthalazin-1-yl)-1H-indol-1-yl)acetic acid]
IC50: 26 nM

Cc1c(CC2=NN(Cc3ccccc3)C(=O)CC2)c2cc(F)ccc2n1CC(=O)O [Example 78, 2-(3-((1-Benzyl-6-oxo-1,4,5,6-tetrahydropyridazin-3-yl)methyl)-5-fluoro-2-methyl-1H-indol-1-yl)acetic acid]
IC50: 2 nM

Cc1c(-c2cn(CC(F)(F)F)c(=O)c3ccccc23)c2cc(F)ccc2n1CC(=O)O [Example 250, 2-(5-fluoro-2-methyl-3-(1-oxo-2-(2,2,2-trifluoroethyl)-1,2-dihydroiso-quinolin-4-yl)-1H-indol-1-yl)acetic acid]
IC50: 4 nM

Cc1c(-c2ccc(=O)n(Cc3ccc(Cl)c(F)c3)n2)c2cc(F)ccc2n1CC(=O)O [Example 12, 2-(3-(1-(4-chloro-3-fluorobenzyl)-6-oxo-1,6-dihydropyridazin-3-yl)-5-fluoro-2-methyl-1H-indol-1-yl)acetic acid]
IC50: 6 nM

Cc1c(-c2ccc(=O)n(Cc3ccncc3)c2)c2cc(F)ccc2n1CC(=O)O [Example 308, 2-(5-fluoro-2-methyl-3-(6-oxo-1-(pyridin-4-ylmethyl)-1,6-dihydropyridin-3-yl)-1H-indol-1-yl)acetic acid]
IC50: 35 nM
